The target in one assay is T1, human G9a enzyme (Homo sapiens, UniProt Q96KQ7).
T1 sequence (Q96KQ7 1-1210): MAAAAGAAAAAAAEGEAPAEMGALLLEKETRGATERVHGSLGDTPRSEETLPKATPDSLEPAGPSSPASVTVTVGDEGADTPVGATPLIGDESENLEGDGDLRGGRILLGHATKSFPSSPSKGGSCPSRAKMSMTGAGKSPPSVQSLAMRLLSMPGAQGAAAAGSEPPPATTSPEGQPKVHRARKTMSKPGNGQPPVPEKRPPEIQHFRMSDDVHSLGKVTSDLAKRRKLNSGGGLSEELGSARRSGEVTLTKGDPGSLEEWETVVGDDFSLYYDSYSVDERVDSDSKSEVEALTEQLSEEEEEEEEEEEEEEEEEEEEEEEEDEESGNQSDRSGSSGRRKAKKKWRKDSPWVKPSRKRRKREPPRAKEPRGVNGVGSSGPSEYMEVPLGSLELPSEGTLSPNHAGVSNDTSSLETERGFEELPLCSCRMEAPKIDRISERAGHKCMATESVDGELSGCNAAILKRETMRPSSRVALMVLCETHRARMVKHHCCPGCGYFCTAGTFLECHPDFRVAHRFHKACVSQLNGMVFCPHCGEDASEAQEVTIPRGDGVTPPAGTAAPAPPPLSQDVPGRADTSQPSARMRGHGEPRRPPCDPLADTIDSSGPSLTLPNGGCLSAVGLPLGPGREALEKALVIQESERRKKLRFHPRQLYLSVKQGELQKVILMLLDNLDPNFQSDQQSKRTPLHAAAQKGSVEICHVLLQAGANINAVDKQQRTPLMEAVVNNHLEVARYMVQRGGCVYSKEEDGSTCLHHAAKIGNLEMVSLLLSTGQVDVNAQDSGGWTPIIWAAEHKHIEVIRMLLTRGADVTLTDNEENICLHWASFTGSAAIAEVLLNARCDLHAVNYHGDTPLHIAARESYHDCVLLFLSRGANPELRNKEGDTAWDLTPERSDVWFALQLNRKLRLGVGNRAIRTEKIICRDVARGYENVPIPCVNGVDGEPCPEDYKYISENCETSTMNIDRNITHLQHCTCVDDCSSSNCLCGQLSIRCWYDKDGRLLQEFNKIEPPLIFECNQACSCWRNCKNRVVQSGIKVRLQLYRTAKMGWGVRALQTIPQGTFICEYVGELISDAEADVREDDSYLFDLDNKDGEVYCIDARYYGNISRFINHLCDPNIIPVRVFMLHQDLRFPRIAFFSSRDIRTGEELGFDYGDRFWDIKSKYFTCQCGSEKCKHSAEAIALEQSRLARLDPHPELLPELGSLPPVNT
Put plainly: G9a enzyme activity assay (TR-FRET). It counts as biochemical. Here is the method:
The biochemical assay to measure G9a enzyme activity relies on time-resolved fluorescence energy transfer (TR-FRET) between europium cryptate (donor) and XL665 (acceptor). […] The human G9a enzyme expressed in a baculovirus infected Sf9 cell expression system was obtained from BPS Biosciences (Cat. #51001). […] Final percentage of DMSO was 0.5%. • 2 μl of 1 nM G9a enzyme diluted in assay buffer. […] Final concentration 150 nM. • Then, add 5 μl of streptavidin XL665 beads. Final concentration of 16 μM. • Read the plate after 1 hour of incubation at room temperature.
(§1) For each well, fluorescence was measured at 620 nm and 665 nm. A ratio (665 nm/620 nm) was then calculated in order to minimize medium interferences. Positive control was obtained in the presence of the vehicle of the compounds. Negative control was obtained in the absence of G9a enzyme activity. Calculated IC50 values were determined using GraphPrism using 4-parameters inhibition curve.
On the technique in general: In TR-FRET formats the signal depends on donor and acceptor labels being close together.

For the next assay, the target named is DNMT1 (Homo sapiens, UniProt P26358). Put plainly: DNMT1 enzyme activity assay (TR-FRET, EPIgeneous methyltransferase assay). The assay is classed as biochemical. How it is done: The biochemical assay to measure DNMT1 enzyme activity relies on time-resolved fluorescence energy transfer (TR-FRET) between lumi4-Tb (donor) and d2 (acceptor) using the EPIgeneous methyltransferase assay (CisBio Cat#62SAHPEB). […] TR-FRET signal is inversely proportional to the concentration of SAH, product of DNMT1 enzyme activity, in the sample.
The human DNMT1 was obtained from Reaction Biology Corp. (Cat# DMT-21-124). […] Final percentage of DMSO was 0.5%. • 2 μl of 1 nM DNMT1 enzyme diluted in assay buffer.
as §1

A further assay deals with CEMO-1. Put plainly: Cell proliferation assay, CEMO-1 (ALL). To be noted: Homo sapiens; 48 hours of treatment; Table 3. It counts as cell-based, human. How it is done: (§2) Cell proliferation was analyzed after 48 hours of in vitro treatment using the CellTiter 96 Aqueous One Solution Cell Proliferation Assay (Promega, Madison, Wis.). This is a colorimetric method for determining the number of viable cells in proliferation.
(§3) For the assay, suspension cells were cultured by triplicate at a density of 1×10^6 cells/ml in 96-well plates (100.000 cells/well, 100 μl/well), except for OCILY-3 and OCILY-10 cell lines which were cultured at a density of 0.5×10^6 cells/ml (50.000 cells/well, 100 μl/well) and for HepG2, Hep3B and PLC/PRF/5 cell ines which were cultured at a density of 3000 cells/well, 100 μl/well). Adherent cells were obtained from 80-90% confluent flasks and 100 μl of cells were seeded at a density of 5000 cells/well in 96-well plates by triplicate. Before addition of the compounds, adherent cells were allowed to attach to the bottom of the wells for 12 hours. In all cases, only the 60 inner wells were used to avoid any border effects.
(§4) After 48 hours of treatment, plates with suspension cells were centrifuged at 800 g for 10 minutes and medium was removed. The plates with adherent cells were flicked to remove medium. Then, cells were incubated with 100 ul/well of medium and 20 ul/well of CellTiter 96 Aqueous One Solution reagent. After 1-3 hours of incubation at 37° C., absorbance was measured at 490 nm in a 96-well plate reader. The background absorbance was measured in wells with only cell line medium and solution reagent. Data was calculated as a percentage of total absorbance of treated cell/absorbance of non treated cells.

The subject of a further assay is PLC/PRF/5. Put plainly: Cell proliferation assay, PLC/PRF/5 (HCC). It counts as cell-based. The settings on record: Homo sapiens, 48 hours of treatment, Table 3. How it is done:
as §2, §3, §4

The next assay concerns Hep3B. Put plainly: Cell proliferation assay, Hep3B (HCC). The assay is classed as cell-based. To be noted: Homo sapiens, 48 hours of treatment, Table 3. Here is the method: as §2, §3, §4
A further assay relates to HepG2. As to the kind of experiment: Cell proliferation assay, HepG2 (HCC). The assay is classed as cell-based. The settings on record: Homo sapiens, 48 hours of treatment, Table 3. Here is the method: as §2, §3, §4
The subject of the next assay is OCI-Ly3. As to the kind of experiment: Cell proliferation assay, OCI-Ly3 (ABC-DLBCL). It counts as cell-based. The settings on record: Homo sapiens, 48 hours of treatment, Table 3. How it is done: as §2, §3, §4

SMILES strings stand for the structures. Structures can show the parent of a compound that is named as a salt.

Sequence of DNMT1 (P26358 whole entry): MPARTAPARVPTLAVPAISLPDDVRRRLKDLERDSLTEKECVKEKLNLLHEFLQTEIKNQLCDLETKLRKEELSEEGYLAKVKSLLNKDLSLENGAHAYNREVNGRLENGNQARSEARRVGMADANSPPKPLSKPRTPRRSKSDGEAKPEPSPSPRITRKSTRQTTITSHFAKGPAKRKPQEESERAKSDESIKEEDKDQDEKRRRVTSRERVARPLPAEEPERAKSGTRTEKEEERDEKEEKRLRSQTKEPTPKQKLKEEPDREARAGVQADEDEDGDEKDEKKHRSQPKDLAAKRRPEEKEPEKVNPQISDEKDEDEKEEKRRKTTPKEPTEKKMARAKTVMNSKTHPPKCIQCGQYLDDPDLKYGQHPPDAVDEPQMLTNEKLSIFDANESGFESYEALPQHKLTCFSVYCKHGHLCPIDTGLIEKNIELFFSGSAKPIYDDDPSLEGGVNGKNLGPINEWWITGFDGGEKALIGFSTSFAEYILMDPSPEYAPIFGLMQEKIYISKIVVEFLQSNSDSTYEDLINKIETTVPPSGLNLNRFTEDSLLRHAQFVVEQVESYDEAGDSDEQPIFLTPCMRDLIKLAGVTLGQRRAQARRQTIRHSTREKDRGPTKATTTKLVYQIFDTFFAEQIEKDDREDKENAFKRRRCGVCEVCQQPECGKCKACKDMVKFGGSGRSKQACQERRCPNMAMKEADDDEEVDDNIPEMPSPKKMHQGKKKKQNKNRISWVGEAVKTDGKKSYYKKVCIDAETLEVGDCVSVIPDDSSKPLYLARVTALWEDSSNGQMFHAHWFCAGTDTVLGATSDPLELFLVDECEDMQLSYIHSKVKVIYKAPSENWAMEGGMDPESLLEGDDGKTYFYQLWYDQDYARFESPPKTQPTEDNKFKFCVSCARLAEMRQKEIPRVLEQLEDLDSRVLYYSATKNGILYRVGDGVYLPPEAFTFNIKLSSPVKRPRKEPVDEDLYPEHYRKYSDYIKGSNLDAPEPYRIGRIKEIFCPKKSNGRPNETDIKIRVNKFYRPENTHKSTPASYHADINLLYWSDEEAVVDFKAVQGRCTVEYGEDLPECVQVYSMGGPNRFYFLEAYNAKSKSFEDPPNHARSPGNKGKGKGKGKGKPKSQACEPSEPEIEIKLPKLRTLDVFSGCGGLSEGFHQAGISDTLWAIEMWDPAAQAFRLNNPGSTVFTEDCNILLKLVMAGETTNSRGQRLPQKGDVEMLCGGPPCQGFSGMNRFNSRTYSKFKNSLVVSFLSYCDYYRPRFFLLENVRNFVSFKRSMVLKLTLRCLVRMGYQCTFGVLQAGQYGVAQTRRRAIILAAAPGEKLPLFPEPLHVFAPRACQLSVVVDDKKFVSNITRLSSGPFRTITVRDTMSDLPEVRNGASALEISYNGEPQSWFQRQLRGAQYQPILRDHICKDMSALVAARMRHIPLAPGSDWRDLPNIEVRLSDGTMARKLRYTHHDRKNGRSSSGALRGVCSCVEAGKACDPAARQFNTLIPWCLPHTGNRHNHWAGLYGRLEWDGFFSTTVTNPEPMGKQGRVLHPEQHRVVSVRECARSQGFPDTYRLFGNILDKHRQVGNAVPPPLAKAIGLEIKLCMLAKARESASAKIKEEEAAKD

Regarding `COc1cc2c(NC3CCN(C(C)C)CC3)cc(C3CCCCC3)nc2cc1OCCCN1CCCC1` [Compound 7-05, 2-cyclohexyl-N-(1-isopropyl-4-piperidyl)-6-methoxy-7-(3-pyrrolidin-1-ylpropoxy)quinolin-4-amine; 2,2,2-trifluoroacetic acid], the IC50 (usually the concentration at which inhibition is half-maximal) on human G9a enzyme is less than 100 nM; on DNMT1 it was 500 to 1000 nM. Also, the GI50 with CEMO-1, in the assay on PLC/PRF/5, in the assay with Hep3B and in the assay on HepG2 was no more than 10000 nM in each case.

As to `COc1cc2c(NCC3CCN(C)CC3)cc(-c3ccc(C)[nH]3)nc2cc1OCCCN1CCCC1` [Compound 3-39], the IC50 on human G9a enzyme and at DNMT1 was less than 100 nM each time. In addition, the GI50 – broadly, the concentration that inhibits growth by half – in the assay with CEMO-1 lay within 100 to 1000 nM.

Take `COc1cc2c(NC3CCN(C)CC3)cc(-c3ccc(C)o3)nc2cc1OC1CC2(CNC2)C1` [Compound 16-01, 7-(2-azaspiro[3.3]heptan-6-yloxy)-6-methoxy-2-(5-methyl-2-furyl)-N-(1-methyl-4-piperidyl)quinolin-4-amine; 2,2,2-trifluoroacetic acid]: the IC50 was 1000 to 10000 nM against human G9a enzyme and 100 to 500 nM at DNMT1. The GI50 in the assay with CEMO-1 was 1000 to 10000 nM; in the assay with PLC/PRF/5 it was no more than 10000 nM; with Hep3B, no more than 10000 nM; with HepG2, no more than 10000 nM.

Turning to `COc1cc2c(NC3CCN(C)C(=O)C3)cc(-c3ccc(C)o3)nc2cc1OCCCN1CCCC1` (stereo not shown) [Compound 3-17], in the assay with OCI-Ly3, the GI50 is 100 to 1000 nM.

For the compound `CCc1ccc(-c2cc(NC3CC4(CCNCC4)C3)c3cc(OC)c(OCCCN4CCCC4)cc3n2)o1` [Compound 4-03, N-(7-azaspiro[3.5]nonan-2-yl)-2-(5-ethyl-2-furyl)-6-methoxy-7-(3-pyrrolidin-1-ylpropoxy)quinolin-4-amine:2,2,2-trifluoroacetic acid], the IC50 at human G9a enzyme and on DNMT1 was less than 100 nM each time. Also, the GI50 with CEMO-1 lay in the range of 1000 to 10000 nM.

Regarding `COc1cc2c(NCC3CCN(C)CC3)cc(-c3ccc(C)o3)nc2cc1OCC1CCNCC1` [Compound 11-02], the IC50 at human G9a enzyme and against DNMT1 was 100 to 500 nM in each case. Further, the GI50 in the assay with CEMO-1 fell in the range of 1000 to 10000 nM.

On to `COc1cc2c(NC3CCN(C)CC3)cc(-c3cc4ccccc4o3)nc2cc1OCCCN1CCCC1` [Compound 3-25], for which the IC50 at human G9a enzyme and against DNMT1 was 1000 to 10000 nM throughout.

Turning to `COc1cc2c(NC3CCN(C)CC3)cc(-c3ccc(-c4ccccc4)o3)nc2cc1OCCCN1CCCC1` [Compound 3-32], the IC50 against human G9a enzyme and at DNMT1 was 1000 to 10000 nM each time.

For `COc1cc2c(NC3CCN(C)CC3)cc(-c3ccc(C)s3)nc2cc1OCCCN1CCCC1` [Compound 3-36], the IC50 at human G9a enzyme is less than 100 nM; against DNMT1, 500 to 1000 nM. Besides, in the assay with CEMO-1, the GI50 was in the range of 100 to 1000 nM.

Turning to `COc1cc2c(NC3CC4(CCNCC4)C3)cc(-c3ccc(C)[nH]3)nc2cc1OCCCN1CCCC1` [Compound 4-02, N-(7-azaspiro[3.5]nonan-2-yl)-6-methoxy-2-(5-methyl-1H-pyrrol-2-yl)-7-(3-pyrrolidin-1-ylpropoxy)quinolin-4 amine; hydrochloride], the IC50 is less than 100 nM on human G9a enzyme and 1000 to 10000 nM at DNMT1.

Take `COc1cc2c(NC3CCC34CCN(C)CC4)cc(-c3ccc(C)o3)nc2cc1OCCCN1CCCC1` (stereo not shown) [Compound 5-01, 6-methoxy-N-(7-methyl-7-azaspiro[3.5]nonan-3-yl)-2-(5-methyl-2-furyl)-7-(3-pyrrolidin-1-ylpropoxy)quinolin-4-amine; 2,2,2-trifluoroacetic acid]: the GI50 with OCI-Ly3 was in the range of 100 to 1000 nM.

Take `COc1cc2c(NC3CC4(CCNCC4)C3)cc(-c3ccc(C)o3)nc2cc1OCC1CCNCC1` [Compound 11-10]: the figures for the IC50 against human G9a enzyme and on DNMT1 were 1000 to 10000 nM and 100 to 500 nM, respectively.

With `COc1cc2c(NC3CC4(CCN(C)CC4)C3)cc(-c3ccc(C)[nH]3)nc2cc1OCCCN1CCCC1` [Compound 5-05, 6-methoxy-N-(7-methyl-7-azaspiro[3.5]nonan-2-yl)-2-(5-methyl-1H-pyrrol-2-yl)-7-(3-pyrrolidin-1-ylpropoxy)quinolin-4-amine; 2,2,2-trifluoroacetic acid], the IC50 on human G9a enzyme was less than 100 nM; at DNMT1, 100 to 500 nM. Further, the GI50 in the assay on CEMO-1 was 1000 to 10000 nM.

For the compound `COc1cc2c(NC3CCN(C)CC3)cc(-c3cc(C)oc3C)nc2cc1OCCCN1CCCC1` [Compound 3-35], the IC50 was less than 100 nM at human G9a enzyme and 500 to 1000 nM against DNMT1.

Consider `COc1cc2c(NC3CCN(C)C(=O)C3)cc(-c3ccc(C)[nH]3)nc2cc1OCC1CCNCC1` (stereo not shown) [Compound 11-11], for which the IC50 at human G9a enzyme and against DNMT1 was 500 to 1000 nM each time.

For the compound `COc1cc2c(NC3CCN(C)CC3)cc(C3CCOCC3)nc2cc1OCCCN1CCCC1` [Compound 7-02, 6-methoxy-N-(1-methyl-4-piperidyl)-7-(3-pyrrolidin-1-ylpropoxy)-2-tetrahydropyran-4-yl-quinolin-4-amine; 2,2,2-trifluoroacetic acid], the values for the IC50 at human G9a enzyme and on DNMT1 were less than 100 nM and 1000 to 10000 nM, respectively.

With `COc1cc2c(NC3CCN(C)CC3)cc(C3CCC(C)O3)nc2cc1OCCCN1CCCC1` (stereo not shown) [Compound 15-01, 6-methoxy-N-(1-methyl-4-piperidyl)-2-(5-methyltetrahydrofuran-2-yl)-7-(3-pyrrolidin-1-ylpropoxy)quinolin-4-amine; 2,2,2-trifluoroacetic acid], the values for the IC50 against human G9a enzyme and against DNMT1 were less than 100 nM and 1000 to 10000 nM, respectively.

For the compound `COc1cc2c(NC3CCCC3)cc(-c3ccc(C)o3)nc2cc1OCCCN1CCCC1` [Compound 3-05], the GI50 in the assay with CEMO-1 fell in the range of 100 to 1000 nM.

As for `COc1cc2c(NC3CC4(CCNCC4)C3)cc(-c3ccc(C)[nH]3)nc2cc1OCC1CCNCC1` [Compound 11-09], the IC50 against human G9a enzyme and against DNMT1 was 100 to 500 nM in each case.

Consider `COc1cc2c(NC3CCN(C)CC3)cc(C3=CCOCC3)nc2cc1OCCCN1CCCC1` [Compound 6-02], for which the IC50 against human G9a enzyme was less than 100 nM; at DNMT1 it was 500 to 1000 nM.

As to `COc1cc2c(NC3CCCC3)cc(-c3ccc(C)[nH]3)nc2cc1OCCCN1CCCC1` [Compound 3-38], the IC50 was less than 100 nM against human G9a enzyme and 100 to 500 nM on DNMT1.

Values taken from US9840500B2, “Compounds as dual inhibitors of histone methyltransferases and DNA methyltransferases” (FUNDACIÓN PARA LA INVESTIGACIÓN MÉDICA APLICADA, priority 2014, dated 2017).
